Results published in PMC8903829 (eLife, 2022).
Where two headings read alike, the source gives them in different places.

Assays:
[1] = system: wild-type Sprague Dawley rats; assay: DC-Maximal electroshock seizure assay (DC-MES); assay type: in vivo, rat
Experimental: (§1) Phenytoin was formulated in physiologic saline and was administered intraperitoneally (i.p.) using a 25-gauge needle at a dose volume of 10 mL/kg. All compounds were administered 2 hr prior to electrical seizure induction for all seizure models employed in this study.
(§2) The maximal electroshock seizure (MES) assay has been extensively used in the search for anticonvulsant substances ([Löscher et al., 1991]; [Piredda et al., 1985]; [White et al., 1995]). The MES assay is sensitive to nonselective NaV inhibitors. It is considered a model for generalized tonic-clonic (GTC) seizures and provides an assessment of seizure spread. Briefly, an electroshock of direct current (DC) was delivered by corneal electrodes (Electro Convulsive Therapy Unit 57,800 from Ugo Basile). The parameters of stimulation were different between mice and rats. In CF1 mice aged 9–12 weeks, a direct current of 50 mA (60 Hz) was delivered for 0.2 s (pulse width of 0.5ms), whereas in Sprague Dawley (SD) rats aged 5–6 weeks, a direct current of 150 mA (60 Hz) was delivered for 0.3 s (pulse width of 0.5ms). Immediately prior to the electroshock, the animals’ eyes were anesthetized with a drop of Alcaine (0.5% proparacaine hydrochloride).
(§3) An animal was considered protected in the assay in the absence of a GTC with hindlimb extension and is then scored ‘0’. An animal displaying GTC with hindlimb extension was considered not protected and is then scored ‘1’. The experimenter scoring the seizure behavior was blinded to the treatment.

wild-type mice (CF-1) = assay: DC-Maximal electroshock seizure assay (DC-MES); assay type: in vivo, mouse
Experimental: as §1, §2, §3

[2] = Bioanalytical assessment of plasma and brain concentrations after mouse DC-MES assay; assay type: in vivo; details: mouse, intraperitoneal, WT mouse DC-MES acute
Experimental: (§4) Approximately 0.5 mL of blood was collected from each mouse at the end of the assay via cardiac puncture under deep anesthesia. The blood samples were collected in a syringe and transferred to tubes containing EDTA. Blood was stored at 4 °C until centrifuged within 30 min of collection. Plasma was harvested and placed on dry ice and stored in a freezer set to maintain a temperature of –70°C to –80°C until analysis. Brains were harvested immediately after blood collection and placed on dry ice prior to storage in a freezer set to maintain a temperature of –70°C to –80°C until analysis.
(§5) Extraction of plasma samples was carried out by protein precipitation using acetonitrile. Plasma samples (50 µL) were mixed with 50 µL of internal standard (IS) solution in water followed by addition of 10 µL of concentrated ortho-phosphoric acid and 200 µL of acetonitrile. Samples were vortexed for 30 seconds, centrifuged at 13,000 rpm for 20 min, decanted in to a 96-well plate, and further centrifuged at 4000 rpm for 20 min. The samples were analyzed by UHPLC-ESI-MS/MS as described below.
(§6) Prior to extraction, pre-weighed whole brains were homogenized in 1:1 acetonitrile/water (v/v) (4 mL per mouse brain) using an IKA T18 ULTRA-TURRAX Homogenizer at the setting of 4 for approximately 2 min. The homogenate was centrifuged at 13,000 rpm for 20 min and 50 µL of the supernatant were treated exactly as described above for plasma samples. […]
(§7) Samples were analyzed by UHPLC-ESI MS/MS using a TQ-5500 Sciex triple quadrupole mass spectrometer equipped with a Shimadzu Nexera UHPLC pump and auto-sampler system using an ACE C18 PFP, 2.50 × 50 mm, 1.7 µm particle size column and gradient elution consisting of solvent A (0.1% formic acid in water) and solvent B (0.1% formic acid in acetonitrile) starting at 20% B from 0 min to 0.4 min and then increased to 100% B from 0.4 min to 0.6 min. At 2.0 min, the mobile phase composition was switched back to […] for 1 min. The flow rate used throughout the experiment was […]. […] The UHPLC-ESI MS/MS system was controlled by Analyst 1.6.
(§8) Sample concentrations were determined using a linear calibration function, weighted 1 /X, generated by the regression of analyte to IS peak area ratios in the standard samples to their respective concentrations. Acceptance criteria for the analytical run required that the back calculated values of the standards and the QC samples fell within ±20% of their nominal values, except for the lowest standard or lower limit of quantitation (LLOQ), for which the acceptance criterion was ±25%. At least 6 out of 12 standard points had to show back-calculated values within ±20% of their nominal concentrations for the calibration to be accepted. At least three QC samples, one at each level, had to show back-calculated values within ±20% of their nominal concentrations for the whole sample batch to be valid.

Sprague Dawley rats = assay: Observation of potential adverse behavior (behavioral signs) in the rat DC-MES studies; assay type: in vivo; details: Sprague Dawley, rat, in vivo, 2 hr
Experimental: Animals were observed by the scientist(s) responsible for dosing for the first 30 min after dosing for and again at the time of assay (2 hr post dose) for signs of abnormal behavior.

Scn8a^N1768D/+ mice = assay: Modified 6 Hz psychomotor seizure assay; assay type: in vivo, mouse
Experimental: as §1
Scn8a^N1768D/+heterozygous mice were tested at 5 weeks of age (p35). The modified 6 Hz seizure assay in Scn8a^N1768D/+heterozygous mice was adapted from the traditional 6 Hz assay psychomotor seizure assay to provide a measure of in vivo on target (NaV1.6 mediated) efficacy ([Barton et al., 2001]). The modified assay used a low frequency (6 Hz) but long-duration stimulation (3 s) to induce seizures. […] An electroshock (6 Hz, 12 mA) was delivered for 3 s (at 0.3-ms pulse interval) by corneal electrodes (Electro Convulsive Therapy Unit 57,800 from Ugo Basile). Immediately prior to the electroshock, the animals’ eyes were anesthetized with a drop of Alcaine (0.5% proparacaine hydrochloride).
An animal was considered protected in the assay upon prevention of GTC with hindlimb extension and was then scored ‘0’. An animal displaying GTC with hindlimb extension was considered not protected and is then scored ‘1’. The experimenter scoring the seizure behavior was blinded to the treatment.

[3] = Bioanalytical assessment of plasma and brain concentrations after 6 Hz assay; assay type: in vivo, mouse
Experimental: as §4, §5, §6, §7, §8

[4] = Bioanalytical assessment of plasma and brain concentrations after rat DC-MES assay; assay type: in vivo; details: Study18085, 2 mg/kg, Rat DC-MES
[5] = Study16042, 1 mg/kg, SCN8A mouse 6HZ
[6] = Study16042, 3 mg/kg, SCN8A mouse 6HZ
[7] = Study16042, 10 mg/kg, SCN8A mouse 6HZ
[8] = Study16042, 30 mg/kg, SCN8A mouse 6HZ
[9] = Study16042, 56 mg/kg, SCN8A mouse 6HZ
[10] = Study16189, 10 mg/kg, SCN8A mouse 6HZ
[11] = Study16189, 30 mg/kg, SCN8A mouse 6HZ
[12] = Study16202, 1 mg/kg, P75, SCN8A mouse 6HZ
[13] = Study16202, 3 mg/kg, P75, SCN8A mouse 6HZ

Question: For `O=C1NC(=O)C(c2ccccc2)(c2ccccc2)N1` [phenytoin, Phenytoin], which EC50 ([1]; WT rat DC-MES (oral; phenytoin i.p.), read-out: plasma EC50) is on record?
Answer: 4.5 µM

Question: And the EC50 ([1]; WT rat DC-MES, 2 hr post dose (oral; phenytoin i.p.), read-out: brain EC50)?
Answer: 2.6 µM

Question: What about the “WT mouse DC-MES acute Fraction of animals seizing” value (from here on “WT mouse DC-MES acute Fraction”) (wild-type mice (CF-1); Study16130, 5 mg/kg) of the same compound?
Answer: 0.5714

Question: What about the “WT mouse DC-MES acute Fraction” value (wild-type mice (CF-1); Study16130, 10 mg/kg) of the same compound?
Answer: 0

Question: And the “WT mouse DC-MES acute Fraction” value (wild-type mice (CF-1); Study17131, 2 mg/kg)?
Answer: 0.6667

Question: What about the “WT mouse DC-MES acute Fraction” value (wild-type mice (CF-1); Study17136, 2 mg/kg) of the same compound?
Answer: 0.7143

Question: What about the “WT mouse DC-MES acute Fraction” value (wild-type mice (CF-1); Study17136, 5 mg/kg) of the same compound?
Answer: 0.625

Question: What about the EC50 (wild-type mice (CF-1); WT mouse DC-MES, 2 hr post dose (oral; phenytoin i.p.), read-out: brain EC50) of the same compound?
Answer: 13 µM

Question: What about the concentration at 2 h ([2]; brain, 2 mg/kg, Study17131, 2 mg/kg, read-out: Mean [Brain]) of the same compound?
Answer: 6.12 µM

Question: What about the concentration at 2 h ([2]; brain, 2 mg/kg, Study17136, 2 mg/kg, read-out: Mean [Brain]) of the same compound?
Answer: 3.6 µM

Question: What about the concentration at 2 h ([2]; brain, 5 mg/kg, Study16130, 5 mg/kg, read-out: Mean [Brain]) of the same compound?
Answer: 17.9 µM

Question: What about the concentration at 2 h ([2]; brain, 5 mg/kg, Study17136, 5 mg/kg, read-out: Mean [Brain]) of the same compound?
Answer: 10.9 µM

Question: And the concentration at 2 h ([2]; brain, 10 mg/kg, Study16130, 10 mg/kg, read-out: Mean [Brain])?
Answer: 38.3 µM

Question: And the concentration at 2 h ([2]; plasma, 2 mg/kg, Study17131, 2 mg/kg, read-out: Mean [Palsma])?
Answer: 3.42 µM

Question: And the concentration at 2 h ([2]; plasma, 2 mg/kg, Study17136, 2 mg/kg, read-out: Mean [Palsma])?
Answer: 3.65 µM

Question: And the concentration at 2 h ([2]; plasma, 5 mg/kg, Study16130, 5 mg/kg, read-out: Mean [Palsma])?
Answer: 16.1 µM

Question: And the concentration at 2 h ([2]; plasma, 5 mg/kg, Study17136, 5 mg/kg, read-out: Mean [Palsma])?
Answer: 11.5 µM

Question: And the concentration at 2 h ([2]; plasma, 10 mg/kg, Study16130, 10 mg/kg, read-out: Mean [Palsma])?
Answer: 30.7 µM

Question: And the “minimal plasma concentration provoking behavioral signs (BSC)” value (Sprague Dawley rats)?
Answer: 11 µM

Question: What about the EC50 (Scn8a^N1768D/+ mice; Mus musculus, Scn8a^N1768D/+ 6 Hz model, 2 hr post dose (oral; phenytoin i.p.), read-out: brain EC50) of the same compound?
Answer: 18 µM

Question: With `O=C1NC(=O)C(c2ccccc2)(c2ccccc2)N1` [PHT] as the compound, how does the “Rat DC-MES Fraction of animals seizing” value ([1]; Study18085, 2 mg/kg) read?
Answer: 0.667

Question: What about the “Mean [Brain]” value [3, 5] of the same compound?
Answer: 2.665 µM

Question: And the “Mean [Palsma]” value [3, 5]?
Answer: 1.798 µM

Question: What about the “Mean [Brain]” value [3, 6] of the same compound?
Answer: 11.7685 µM

Question: And the “Mean [Palsma]” value [3, 6]?
Answer: 7.584 µM

Question: And the “Mean [Brain]” value [3, 7]?
Answer: 38.4981 µM

Question: What about the “Mean [Palsma]” value [3, 7] of the same compound?
Answer: 32.6675 µM

Question: What about the “Mean [Brain]” value [3, 8] of the same compound?
Answer: 120.646 µM

Question: And the “Mean [Palsma]” value [3, 8]?
Answer: 92.6612 µM

Question: And the “Mean [Brain]” value [3, 9]?
Answer: 109.171 µM

Question: And the “Mean [Palsma]” value [3, 9]?
Answer: 127.343 µM

Question: What about the “Mean [Brain]” value [3, 10] of the same compound?
Answer: 29.4623 µM

Question: What about the “Mean [Palsma]” value [3, 10] of the same compound?
Answer: 26.0411 µM

Question: What about the “Mean [Brain]” value [3, 11] of the same compound?
Answer: 76.4798 µM

Question: What about the “Mean [Palsma]” value [3, 11] of the same compound?
Answer: 59.0466 µM

Question: What about the “Mean [Brain]” value [3, 12] of the same compound?
Answer: 2.628 µM

Question: And the “Mean [Palsma]” value [3, 12]?
Answer: 2.477 µM

Question: And the “Mean [Brain]” value [3, 13]?
Answer: 7.154 µM

Question: And the “Mean [Palsma]” value [3, 13]?
Answer: 7.163 µM

Question: And the “Mean [Brain]” value [4]?
Answer: 1.841 µM

Question: And the “Mean [Palsma]” value [4]?
Answer: 3.4567 µM

Question: And the “SCN8A mouse 6HZ Fraction of animals seizing” value (“SCN8A mouse 6HZ Fraction” for short) (Scn8a^N1768D/+ mice; Study16042, 1 mg/kg)?
Answer: 1

Question: And the “SCN8A mouse 6HZ Fraction” value (Scn8a^N1768D/+ mice; Study16042, 3 mg/kg)?
Answer: 0.75

Question: What about the “SCN8A mouse 6HZ Fraction” value (Scn8a^N1768D/+ mice; Study16042, 10 mg/kg) of the same compound?
Answer: 0.25

Question: And the “SCN8A mouse 6HZ Fraction” value (Scn8a^N1768D/+ mice; Study16042, 30 mg/kg)?
Answer: 0

Question: What about the “SCN8A mouse 6HZ Fraction” value (Scn8a^N1768D/+ mice; Study16042, 56 mg/kg) of the same compound?
Answer: 0

Question: What about the “SCN8A mouse 6HZ Fraction” value (Scn8a^N1768D/+ mice; Study16189, 10 mg/kg) of the same compound?
Answer: 0.15

Question: And the “SCN8A mouse 6HZ Fraction” value (Scn8a^N1768D/+ mice; Study16189, 30 mg/kg)?
Answer: 0

Question: What about the “SCN8A mouse 6HZ Fraction” value (Scn8a^N1768D/+ mice; Study16202, 1 mg/kg, P75) of the same compound?
Answer: 1

Question: What about the “SCN8A mouse 6HZ Fraction” value (Scn8a^N1768D/+ mice; Study16202, 3 mg/kg, P75) of the same compound?
Answer: 0.858
